Test results published in the SangsterLogP compilation.

Assay: method code SF-HPLC, from DOI: 10.1080/10826079808000494
Settings: pH 6.9

| Structure (SMILES) | logD |
| --- | --- |
| CCOC(=O)C1=C(C)NC(C)=C(C(=O)OC)C1c1cccc2c1OCCO2 (stereo not given) | 3.17 |
| CCOC(=O)C1=C(C)NC(C)=C(C(=O)OCC)C1c1cccc2c1OCO2 | 3.92 |
| CCOC(=O)C1=C(C)NC(C)=C(C(=O)OC)C1c1cc(OC)cc(OC)c1 (stereo not given) | 3.68 |
| COC(=O)C1=C(C)NC(C)=C(C(=O)OC(C)C)C1c1cccc2c1OCO2 (stereo not given) | 3.75 |
| CCOC(=O)C1=C(C)NC(C)=C(C(=O)OC)C1c1ccccc1 (stereo not given) | 3.74 |
| COC(=O)C1=C(C)NC(C)=C(C(=O)OC)C1c1cccc2c1OCO2 | 3.06 |
| CCOC(=O)C1=C(C)NC(C)=C(C(=O)OC)C1c1ccc(OC)c(OC)c1 (stereo not given) | 3.2 |
| CCOC(=O)C1=C(C)NC(C)=C(C(=O)OC)C1c1ccccc1OCOC (stereo not given) | 3.38 |
| COC(=O)C1=C(C)NC(C)=C(C(=O)OCc2cccnc2)C1c1cccc2c1OCO2 (stereo not given) | 3.21 |

Other lines, results leading:

| logD | Structure (SMILES) |
| --- | --- |
| 2.43 | CCOC(=O)C1=C(C)NC(C)=C(C(=O)OC)C1c1cc(OC)c(O)c(OC)c1 (stereo not given) |
| 3.54 | COCCOC(=O)C1=C(C)NC(C)=C(C(=O)OC(C)C)C1c1cccc2c1OCO2 (stereo not given) |
| 2.47 | CC1=C(C#N)C(C)(C)C(C#N)=C(C)N1 |
| 2.99 | CCOC(=O)C1=C(C)NC(C)=C(C(=O)OC)C1c1cc(OC)c(OC)c(OC)c1 (stereo not given) |
| 3.18 | CCOC(=O)C1=C(C)NC(C)=C(C(=O)OC)C1c1cccc(OC)c1OC (stereo not given) |
| 4.31 | CCOC(=O)C1=C(C)NC(C)=C(C(=O)OC(C)C)C1c1cccc2c1OCO2 (stereo not given) |
